Assay results taken from patent publication US10251395B2, “Substituted furano-/thienocycloalkylamino-2-pyrimidine derivatives and use thereof for controlling undesired plant growth” (Bayer CropScience Aktiengesellschaft, priority 2015, dated 2019).

Experiments:
Alopecurus myosuroides = experiment: Pre-emergence herbicidal effect; assay type: in vivo; details: scored visually after 3 weeks
Method in brief: (§1)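 Sowing in sandy loam, covering with soil, then surface application of compound as aqueous suspension or emulsion (600 to 800 L/ha, 0.2% wetting agent). Greenhouse growth under good conditions; visual % damage scored at 3 weeks versus untreated pots.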

Amaranthus retroflexus [1] = experiment: Pre-emergence herbicidal effect; assay type: in vivo; details: scored visually after 3 weeks
Method in brief: as §1

Avena fatua = experiment: Pre-emergence herbicidal effect; assay type: in vivo; details: scored visually after 3 weeks
Method in brief: as §1

Echinochloa crus-galli [2] = experiment: Pre-emergence herbicidal effect; assay type: in vivo; details: scored visually after 3 weeks
Method in brief: as §1

Lolium multiflorum [3] = experiment: Pre-emergence herbicidal effect; assay type: in vivo; details: scored visually after 3 weeks
Method in brief: as §1

Matricaria inodora [4] = experiment: Pre-emergence herbicidal effect; assay type: in vivo; details: scored visually after 3 weeks
Method in brief: as §1

Setaria viridis [5] = experiment: Pre-emergence herbicidal effect; assay type: in vivo; details: scored visually after 3 weeks
Method in brief: as §1

Stellaria media [6] = experiment: Pre-emergence herbicidal effect; assay type: in vivo; details: scored visually after 3 weeks
Method in brief: as §1

Veronica persica [7] = experiment: Pre-emergence herbicidal effect; assay type: in vivo; details: scored visually after 3 weeks
Method in brief: as §1

Viola tricolor [8] = experiment: Pre-emergence herbicidal effect; assay type: in vivo; details: scored visually after 3 weeks
Method in brief: as §1

Echinochloa crus-galli [9] = experiment: Post-emergence herbicidal effect; assay type: in vivo; details: assessed visually after about 3 weeks vs untreated controls
Method in brief: (§2)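 Greenhouse weeds grown in sandy loam were sprayed at the one-leaf stage, 2–3 weeks after sowing, with WP or EC formulations in 600–800 L/ha water plus 0.2% wetting agent. Damage was scored visually after about 3 weeks as percent activity relative to untreated controls, where 100% means the plants died.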

Lolium multiflorum [10] = experiment: Post-emergence herbicidal effect; assay type: in vivo; details: 320 g/ha, assessed visually after about 3 weeks vs untreated controls
Method in brief: as §2

Polygonum convolvulus [11] = experiment: Post-emergence herbicidal effect; assay type: in vivo; details: assessed visually after about 3 weeks vs untreated controls
Method in brief: as §2

Setaria viridis [12] = experiment: Post-emergence herbicidal effect; assay type: in vivo; details: assessed visually after about 3 weeks vs untreated controls
Method in brief: as §2

Stellaria media [13] = experiment: Post-emergence herbicidal effect; assay type: in vivo; details: assessed visually after about 3 weeks vs untreated controls
Method in brief: as §2

Viola tricolor [14] = experiment: Post-emergence herbicidal effect; assay type: in vivo; details: assessed visually after about 3 weeks vs untreated controls
Method in brief: as §2

Polygonum convolvulus [15] = experiment: Pre-emergence herbicidal effect; assay type: in vivo; details: scored visually after 3 weeks
Method in brief: as §1

Amaranthus retroflexus [16] = experiment: Post-emergence herbicidal effect; assay type: in vivo; details: assessed visually after about 3 weeks vs untreated controls
Method in brief: as §2

Ipomoea purpurea = experiment: Post-emergence herbicidal effect; assay type: in vivo; details: 320 g/ha, assessed visually after about 3 weeks vs untreated controls
Method in brief: as §2

Veronica persica [17] = experiment: Post-emergence herbicidal effect; assay type: in vivo; details: assessed visually after about 3 weeks vs untreated controls
Method in brief: as §2

logP (HCOOH) = assay type: physicochemical; details: HCOOH
Text: Table 2 (physicochemical characterization of selected synthesis examples)

Abutilon theophrasti [18] = experiment: Pre-emergence herbicidal effect; assay type: in vivo; details: Dosage 320 g/ha, scored visually after 3 weeks
Method in brief: as §1

Abutilon theophrasti [19] = experiment: Post-emergence herbicidal effect; assay type: in vivo; details: assessed visually after about 3 weeks vs untreated controls
Method in brief: as §2

Matricaria inodora [20] = experiment: Post-emergence herbicidal effect; assay type: in vivo; details: assessed visually after about 3 weeks vs untreated controls
Method in brief: as §2

| SMILES | ALOMY pre-emergence efficacy (herbicidal activity) (Alopecurus myosuroides; Dosage 320 g/ha) [%] | AMARE pre-emergence efficacy (herbicidal activity) (Amaranthus retroflexus [1]; Dosage 80 g/ha) [%] | AMARE pre-emergence efficacy (herbicidal activity) (Amaranthus retroflexus [1]; Dosage 320 g/ha) [%] | AVEFA pre-emergence efficacy (herbicidal activity) (Avena fatua; Dosage 320 g/ha) [%] | ECHCG pre-emergence efficacy (herbicidal activity) (Echinochloa crus-galli [2]; Dosage 320 g/ha) [%] | LOLMU pre-emergence efficacy (herbicidal activity) (Lolium multiflorum [3]; Dosage 320 g/ha) [%] | MATIN pre-emergence efficacy (herbicidal activity) (Matricaria inodora [4]; Dosage 80 g/ha) [%] | MATIN pre-emergence efficacy (herbicidal activity) (Matricaria inodora [4]; Dosage 320 g/ha) [%] | SETVI pre-emergence efficacy (herbicidal activity) (Setaria viridis [5]; Dosage 80 g/ha) [%] | SETVI pre-emergence efficacy (herbicidal activity) (Setaria viridis [5]; Dosage 320 g/ha) [%] | STEME pre-emergence efficacy (herbicidal activity) (Stellaria media [6]; Dosage 80 g/ha) [%] | STEME pre-emergence efficacy (herbicidal activity) (Stellaria media [6]; Dosage 320 g/ha) [%] | VERPE pre-emergence efficacy (herbicidal activity) (Veronica persica [7]; Dosage 320 g/ha) [%] | VIOTR pre-emergence efficacy (herbicidal activity) (Viola tricolor [8]; Dosage 80 g/ha) [%] | VIOTR pre-emergence efficacy (herbicidal activity) (Viola tricolor [8]; Dosage 320 g/ha) [%] | post-emergence efficacy ECHCG (Echinochloa crus-galli [9]; 320 g/ha) [%] | post-emergence efficacy STEME (Stellaria media [13]; 320 g/ha) [%] | post-emergence efficacy VIOTR (Viola tricolor [14]; 320 g/ha) [%] | ECHCG pre-emergence efficacy (herbicidal activity) (Echinochloa crus-galli [2]; Dosage 80 g/ha) [%] | POLCO pre-emergence efficacy (herbicidal activity) (Polygonum convolvulus [15]; Dosage 320 g/ha) [%] | further results |
| --- | --- | --- | --- | --- | --- | --- | --- | --- | --- | --- | --- | --- | --- | --- | --- | --- | --- | --- | --- | --- | --- |
| Nc1nc(NC2CCc3ccsc32)ncc1C(F)(F)F (racemic) [compound 29] | 100 | 60 | 100 | 100 | 100 | 100 | 100 | 100 | 90 | 100 | 100 | 100 | 90 | 100 | 100 | 100 | 100 | 90 | – | – | post-emergence efficacy LOLMU (Lolium multiflorum [10]): 80%; post-emergence efficacy POLCO (Polygonum convolvulus [11]; 320 g/ha): 90%; post-emergence efficacy SETVI (Setaria viridis [12]; 80 g/ha): 90%; post-emergence efficacy SETVI (Setaria viridis [12]; 320 g/ha): 100%; post-emergence efficacy STEME (Stellaria media [13]; 80 g/ha): 90%; post-emergence efficacy VIOTR (Viola tricolor [14]; 80 g/ha): 80% |
| CS(=O)(=O)c1cnc(NC2CCCc3cc(Cl)sc32)nc1N (racemic) [compound 53] | – | 100 | 100 | – | 100 | – | 100 | 100 | – | 100 | 80 | 100 | 100 | 100 | 100 | 90 | 100 | 100 | 100 | 90 | VERPE pre-emergence efficacy (herbicidal activity) (Veronica persica [7]; Dosage 80 g/ha): 100%; post-emergence efficacy AMARE (Amaranthus retroflexus [16]; 80 g/ha): 90%; post-emergence efficacy AMARE (Amaranthus retroflexus [16]; 320 g/ha): 100%; post-emergence efficacy ECHCG (Echinochloa crus-galli [9]; 80 g/ha): 80%; post-emergence efficacy PHBPU (Ipomoea purpurea): 90%; post-emergence efficacy POLCO (Polygonum convolvulus [11]; 80 g/ha): 80%; post-emergence efficacy POLCO (Polygonum convolvulus [11]; 320 g/ha): 90%; post-emergence efficacy SETVI (Setaria viridis [12]; 320 g/ha): 100%; post-emergence efficacy STEME (Stellaria media [13]; 80 g/ha): 100%; post-emergence efficacy VERPE (Veronica persica [17]; 80 g/ha): 90%; post-emergence efficacy VERPE (Veronica persica [17]; 320 g/ha): 90%; post-emergence efficacy VIOTR (Viola tricolor [14]; 80 g/ha): 90%; logP (HCOOH) (logP (HCOOH)): solid; logP (HCOOH): 2.41; 1H NMR (CDCl3, 400 MHZ, δ in ppm): 1.75-2.00 (m, |
| Cc1cc2c(o1)CCCC2Nc1ncc(S(C)(=O)=O)c(N)n1 (racemic) [compound 62] | 60 | – | 100 | – | 80 | 50 | 80 | 100 | – | 80 | 90 | 100 | 90 | 90 | 100 | 40 | 90 | 100 | – | – | ABUTH pre-emergence efficacy (herbicidal activity) (Abutilon theophrasti [18]): 90%; post-emergence efficacy AMARE (Amaranthus retroflexus [16]; 80 g/ha): 80%; post-emergence efficacy AMARE (Amaranthus retroflexus [16]; 320 g/ha): 90%; post-emergence efficacy LOLMU (Lolium multiflorum [10]): 80%; logP (HCOOH) (logP (HCOOH)): oily; logP (HCOOH): 1.78; 1H NMR (CDCl3, 400 MHZ, δ in ppm): 1.70-2.00 (m, 4H, |
| CC(=O)c1cnc(NC2CCCc3sc(C)cc32)nc1N (racemic) [compound 150] | 100 | 100 | 100 | – | 100 | 100 | – | – | 100 | 100 | 100 | 100 | 100 | 100 | 100 | 80 | 100 | 90 | 90 | 100 | ABUTH pre-emergence efficacy (herbicidal activity) (Abutilon theophrasti [18]): 70%; ALOMY pre-emergence efficacy (herbicidal activity) (Alopecurus myosuroides; Dosage 80 g/ha): 90%; LOLMU pre-emergence efficacy (herbicidal activity) (Lolium multiflorum [3]; Dosage 80 g/ha): 100%; VERPE pre-emergence efficacy (herbicidal activity) (Veronica persica [7]; Dosage 80 g/ha): 70%; post-emergence efficacy ABUTH (Abutilon theophrasti [19]; 80 g/ha): 80%; post-emergence efficacy ABUTH (Abutilon theophrasti [19]; 320 g/ha): 80%; post-emergence efficacy AMARE (Amaranthus retroflexus [16]; 80 g/ha): 80%; post-emergence efficacy AMARE (Amaranthus retroflexus [16]; 320 g/ha): 90%; post-emergence efficacy PHBPU (Ipomoea purpurea): 90%; post-emergence efficacy LOLMU (Lolium multiflorum [10]): 90%; post-emergence efficacy MATIN (Matricaria inodora [20]; 80 g/ha): 80%; post-emergence efficacy MATIN (Matricaria inodora [20]; 320 g/ha): 90%; post-emergence efficacy SETVI (Setaria viridis [12]; 320 g/ha): 90%; post-emergence efficacy STEME (Stellaria media [13]; 80 g/ha): 80%; post-emergence efficacy VERPE (Veronica persica [17]; 80 g/ha): 100%; post-emergence efficacy VERPE (Veronica persica [17]; 320 g/ha): 100%; post-emergence efficacy VIOTR (Viola tricolor [14]; 80 g/ha): 80%; logP (HCOOH) (logP (HCOOH)): oily; logP (HCOOH): 1.51; 1H NMR (CDCl3, 400 MHZ, δ in ppm): 1.85 (m, 3H, 3H of |
| Nc1nc(NC2CCc3sccc32)ncc1C(F)(F)F (racemic) [compound 215] | 90 | 100 | 100 | 70 | 100 | 100 | 100 | 100 | 90 | 100 | 100 | 100 | 100 | 80 | 90 | – | – | – | 80 | 100 | AVEFA pre-emergence efficacy (herbicidal activity) (Avena fatua; Dosage 80 g/ha): 70%; VERPE pre-emergence efficacy (herbicidal activity) (Veronica persica [7]; Dosage 80 g/ha): 100% |
| Cc1cc2c(s1)CCCC2Nc1nc(N)c([S+](C)[O-])c(C(C)F)n1 (racemic) [compound 309] | 90 | 90 | 100 | 90 | 90 | – | 90 | 100 | 90 | 100 | 100 | 100 | 100 | 100 | 100 | – | – | – | 60 | 100 | ABUTH pre-emergence efficacy (herbicidal activity) (Abutilon theophrasti [18]): 80%; POLCO pre-emergence efficacy (herbicidal activity) (Polygonum convolvulus [15]; Dosage 80 g/ha): 100%; VERPE pre-emergence efficacy (herbicidal activity) (Veronica persica [7]; Dosage 80 g/ha): 100% |
| Cc1cc2c(s1)CCCC2Nc1nc(N)c(Br)c(C(F)F)n1 (racemic) [compound 314] | 90 | 90 | – | 60 | 90 | – | 90 | – | 100 | 100 | 100 | 100 | 100 | 100 | 100 | 60 | 50 | 60 | 70 | 100 | ABUTH pre-emergence efficacy (herbicidal activity) (Abutilon theophrasti [18]): 60%; ALOMY pre-emergence efficacy (herbicidal activity) (Alopecurus myosuroides; Dosage 80 g/ha): 60%; POLCO pre-emergence efficacy (herbicidal activity) (Polygonum convolvulus [15]; Dosage 80 g/ha): 100%; post-emergence efficacy ABUTH (Abutilon theophrasti [19]; 320 g/ha): 70%; post-emergence efficacy PHBPU (Ipomoea purpurea): 90%; post-emergence efficacy SETVI (Setaria viridis [12]; 320 g/ha): 60% |
